{
  "source": "paper PMC9537572",
  "about": "“Elucidation of the binding mechanism of astragaloside IV derivative with human serum albumin and its cardiotoxicity in zebrafish embryos” (Frontiers in Pharmacology, 2022)",
  "key": {"HSA [1]": {"target": "T1, HSA (Homo sapiens, UniProt P02768)", "T1 sequence (P02768 25-609)": "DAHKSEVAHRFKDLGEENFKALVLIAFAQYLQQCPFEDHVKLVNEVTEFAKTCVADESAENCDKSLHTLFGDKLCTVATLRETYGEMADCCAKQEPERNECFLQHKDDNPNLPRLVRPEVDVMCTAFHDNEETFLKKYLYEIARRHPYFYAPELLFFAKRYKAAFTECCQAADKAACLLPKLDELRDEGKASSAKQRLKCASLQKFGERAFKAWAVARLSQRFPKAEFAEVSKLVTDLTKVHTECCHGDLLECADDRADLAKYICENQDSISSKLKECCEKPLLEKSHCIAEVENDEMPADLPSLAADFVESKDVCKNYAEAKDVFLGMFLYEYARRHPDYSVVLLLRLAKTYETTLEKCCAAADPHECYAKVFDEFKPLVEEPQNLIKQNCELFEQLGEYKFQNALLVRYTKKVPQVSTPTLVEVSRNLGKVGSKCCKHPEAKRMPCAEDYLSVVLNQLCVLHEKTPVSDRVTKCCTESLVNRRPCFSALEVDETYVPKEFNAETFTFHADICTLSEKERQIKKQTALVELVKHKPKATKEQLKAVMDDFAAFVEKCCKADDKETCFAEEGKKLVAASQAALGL", "assay": "Plasma protein binding rate by equilibrium dialysis and UHPLC-MS/MS", "assay_type": "in vitro ADME", "method": "The binding rate of AGS IV/LS-102 and HSA was determined using a slightly modified equilibrium dialysis method ([Metsu et al., 2020]). […] The stock solutions of HSA (0.5 ml) and drug group (0.5 ml) were placed in a dialysis membrane bag that was ligated at both ends and then immersed in a test tube filled with 50 ml of PBS solution for 72 h at 4 °C. After equilibrium, a 0.5-ml solution of outer dialysate and internal dialysate was collected into a 2-ml EP tube, and 10 µL IS (digoxin, 0.1 mg/ml) solution was added to each tube. Both samples were added to 1.5 ml of acetonitrile and vortexed for 3 min, and then the samples were separated via centrifugation at 18,000 × g for 20 min. The supernatants were transferred to another EP tube and dried under a nitrogen stream. The residue was redissolved in 1 ml methanol, sonicated for 2 min, vortexed for 3 min, and centrifuged at 18,000 × g for 10 min. The supernatant was filtered with a 0.22 µm microporous syringe filter in a 2 ml sample vial, and 1 µL was injected into the UHPLC-MS/MS system for analysis. The plasma protein binding rate was calculated according to the following formula ([Talbert et al., 2002]): Plasma binding rate=Internal drug concentration−External drug concentration/Initial drug concentration ×100%"}, "HSA [2]": {"target": "T1, HSA", "assay": "Site marker competitive experiments (warfarin, ibuprofen) by equilibrium dialysis", "assay_type": "in vitro ADME", "details": "drug 0.476 mg/ml, n = 3, read-out: Plasma protein binding (converted)", "method": "The site marker competitive experiments were performed using two classical site probes, warfarin and ibuprofen, which were selected as the markers of subdomain IIA (site I) and subdomain IIIA (site II) separately of HAS ([Ghuman et al., 2005]). The procedure was consistent with the method described in section 2.5, except that the concentrations of AGS IV and LS-102 were both fixed at 0.476 mg/ml, while the external dialysis solution was changed to contain the probe with a final concentration of 0, 0.06, 0.3, 1.2 mg/ml PBS solution. Briefly, the AGS IV/LS-102 HSA mixture (0.5 ml drug and 0.5 ml HSA) was separately incubated with three different concentrations of probe to evaluate the effects of warfarin or ibuprofen on drug-protein binding influence. Three replicates of each concentration were prepared. After equilibrium dialysis, the internal and external dialysates were analyzed by UHPLC-MS/MS."}, "zebrafish embryos [3]": {"system": "zebrafish embryos", "assay": "Astemizole-induced cardiotoxicity in zebrafish embryos: heart rate and SV-BA spacing", "assay_type": "in vivo", "details": "4 µM astemizole; for Heart rate (beats/min) (Mean±SE) / SV-BA spacing (µm) (Mean±SE): n = 10", "method": "A total of 270 wild-type AB zebrafish at 3 dpf were randomly selected, and 30 zebrafish were plated in each well of a six-well plates. The concentrations of LS-102 were 27.8, 83.3 and 250 µg/ml, AGS IV was 250 µg/mL. A normal control group (fish culture water) and a 4 µM astemizole model control group were also established. Ten zebrafish were randomly selected from each group, and the heart rate and venous sinus-to-arterial bulb distance (SV-BA) of zebrafish were observed under a dissecting microscope after 2 h, 6 h and 24 h of LS-102 and AGS IV treatment. Images were collected by photographing, and the ameliorative effect of LS-102 and AGS IV on astemizole-induced cardiotoxicity in zebrafish was evaluated by the statistical significance of the heart rate and the SV-BA interval index."}, "zebrafish embryos [4]": {"system": "zebrafish embryos", "assay": "Astemizole-induced toxicity in zebrafish heart development", "assay_type": "in vivo", "details": "for Mortality: cotreated with 4 µM astemizole 48 h from 2 hpf", "method": "A total of 270 wild-type AB zebrafish at 2 h post-fertilization (2 hpf) were randomly selected, and 30 zebrafish were plated in each well of a six-well plates. The concentrations of LS-102 were 27.8, 83.3 and 250 µg/ml, while that of AGS IV was 250 µg/mL. A normal control group (fish culture water) and a 4 µM astemizole model control group were also established. After LS-102 and AGS IV were cotreated with astemizole for 48 h, zebrafish heart development was observed and photographed under a microscope to evaluate the ameliorative effect of LS-102 and AGS IV on astemizole-induced toxicity in zebrafish heart development."}, "mice": {"system": "mice", "details": "even at high treatment doses, ref Qing et al., 2019, Sun et al.; cited from earlier work"}, "[5]": {"details": "83.3 µg/mL, 4 µM astemizole, 48 h, n=30"}},
  "note": "“Also recorded” adds a separate entry of the source.",
  "data": [
    {"smiles": "CC(C)(O)C1CCC(C)(C2C(O)CC3(C)C4CC(OC5OC(C(=O)O)C(O)C(O)C5O)C5C(C)(C)C(OC6OCC(O)C(O)C6O)CCC56CC46CCC23C)O1", "note": "(centres unmarked) [LS-102, astragalosidic acid]", "values": [
      {"measurement": "Plasma protein binding rate, range over the concentrations", "setting": "HSA [1]; across the three concentrations (0.238-0.714 mg/ml)", "value": "68.24%–69.35"},
      {"measurement": "fraction unbound at 72 h", "setting": "HSA [1]; human, plasma, across the three concentrations (0.238-0.714 mg/ml), read-out: Plasma protein binding rate, range over the concentrations", "value": "0.306 to 0.331"},
      {"measurement": "fraction unbound at 72 h, 0.238 mg/ml", "setting": "HSA [1]; human, drug 0.238 mg/ml, equilibrium dialysis 72 h at 4 °C, n = 3, read-out: Protein binding rate (%, Mean±SD) (converted)", "value": 0.318},
      {"measurement": "fraction unbound at 72 h, 0.476 mg/ml", "setting": "HSA [1]; human, drug 0.476 mg/ml, equilibrium dialysis 72 h at 4 °C, n = 3, read-out: Protein binding rate (%, Mean±SD) (converted)", "value": 0.306},
      {"measurement": "fraction unbound at 72 h, 0.714 mg/ml", "setting": "HSA [1]; human, drug 0.714 mg/ml, equilibrium dialysis 72 h at 4 °C, n = 3, read-out: Protein binding rate (%, Mean±SD) (converted)", "value": 0.314},
      {"measurement": "fraction unbound at 72 h, 0.476 mg/ml", "setting": "HSA [2]; with ibuprofen 0.06 mg/ml", "value": 0.368},
      {"measurement": "fraction unbound at 72 h, 0.476 mg/ml", "setting": "HSA [2]; with ibuprofen 0.3 mg/ml", "value": 0.248},
      {"measurement": "fraction unbound at 72 h, 0.476 mg/ml", "setting": "HSA [2]; with ibuprofen 1.2 mg/ml", "value": 0.28},
      {"measurement": "fraction unbound at 72 h, 0.476 mg/ml", "setting": "HSA [2]; with warfarin 0.06 mg/ml", "value": 0.467},
      {"measurement": "fraction unbound at 72 h, 0.476 mg/ml", "setting": "HSA [2]; with warfarin 0.3 mg/ml", "value": 0.411},
      {"measurement": "fraction unbound at 72 h, 0.476 mg/ml", "setting": "HSA [2]; with warfarin 1.2 mg/ml", "value": 0.453},
      {"measurement": "fraction unbound at 72 h, 0.476 mg/ml", "setting": "HSA [2]; without site markers", "value": 0.331},
      {"measurement": "Heart rate (beats/min) (Mean±SE)", "setting": "zebrafish embryos [3]; 27.8 µg/ml, 2 h", "value": "156 ± 1", "unit": "beats/min"},
      {"measurement": "SV-BA spacing (µm) (Mean±SE)", "setting": "zebrafish embryos [3]; 27.8 µg/ml, 2 h", "value": "179 ± 7", "unit": "µm"},
      {"measurement": "Heart rate (beats/min) (Mean±SE)", "setting": "zebrafish embryos [3]; 27.8 µg/ml, 6 h", "value": "158 ± 1", "unit": "beats/min"},
      {"measurement": "SV-BA spacing (µm) (Mean±SE)", "setting": "zebrafish embryos [3]; 27.8 µg/ml, 6 h", "value": "204 ± 6", "unit": "µm"},
      {"measurement": "Heart rate (beats/min) (Mean±SE)", "setting": "zebrafish embryos [3]; 27.8 µg/ml, 24 h", "value": "45 ± 23", "unit": "beats/min"},
      {"measurement": "SV-BA spacing (µm) (Mean±SE)", "setting": "zebrafish embryos [3]; 27.8 µg/ml, 24 h", "value": "250 ± 6", "unit": "µm"},
      {"measurement": "Heart rate (beats/min) (Mean±SE)", "setting": "zebrafish embryos [3]; 83.3 µg/ml, 2 h", "value": "157 ± 2", "unit": "beats/min"},
      {"measurement": "SV-BA spacing (µm) (Mean±SE)", "setting": "zebrafish embryos [3]; 83.3 µg/ml, 2 h", "value": "157 ± 3", "unit": "µm"},
      {"measurement": "Heart rate (beats/min) (Mean±SE)", "setting": "zebrafish embryos [3]; 83.3 µg/ml, 6 h", "value": "153 ± 1", "unit": "beats/min"},
      {"measurement": "SV-BA spacing (µm) (Mean±SE)", "setting": "zebrafish embryos [3]; 83.3 µg/ml, 6 h", "value": "168 ± 4", "unit": "µm"},
      {"measurement": "Heart rate (beats/min) (Mean±SE)", "setting": "zebrafish embryos [3]; 83.3 µg/ml, 24 h", "value": "128 ± 21", "unit": "beats/min"},
      {"measurement": "SV-BA spacing (µm) (Mean±SE)", "setting": "zebrafish embryos [3]; 83.3 µg/ml, 24 h", "value": "228 ± 7", "unit": "µm"},
      {"measurement": "Heart rate (beats/min) (Mean±SE)", "setting": "zebrafish embryos [3]; 250 µg/ml, 2 h", "value": "160 ± 1", "unit": "beats/min"},
      {"measurement": "SV-BA spacing (µm) (Mean±SE)", "setting": "zebrafish embryos [3]; 250 µg/ml, 2 h", "value": "151 ± 3", "unit": "µm"},
      {"measurement": "Heart rate (beats/min) (Mean±SE)", "setting": "zebrafish embryos [3]; 250 µg/ml, 6 h", "value": "167 ± 1", "unit": "beats/min"},
      {"measurement": "SV-BA spacing (µm) (Mean±SE)", "setting": "zebrafish embryos [3]; 250 µg/ml, 6 h", "value": "158 ± 6", "unit": "µm"},
      {"measurement": "Heart rate (beats/min) (Mean±SE)", "setting": "zebrafish embryos [3]; 250 µg/ml, 24 h", "value": "162 ± 7", "unit": "beats/min"},
      {"measurement": "SV-BA spacing (µm) (Mean±SE)", "setting": "zebrafish embryos [3]; 250 µg/ml, 24 h", "value": "174 ± 9", "unit": "µm"},
      {"measurement": "Effect on astemizole-induced heart rate slowing and SV-BA spacing increase (in words)", "setting": "zebrafish embryos [3]; 2 h and 6 h, 27.8, 83.3 and 250 µg/ml", "value": "improved the slowed heart rate and increased the SV-BA spacing"},
      {"measurement": "Effect on astemizole-induced heart rate slowing and SV-BA spacing increase (in words)", "setting": "zebrafish embryos [3]; 24 h", "value": "improved the slowed heart rate at 250 µg/ml and the increase in SV-BA spacing at 83.3 and 250 µg/ml"},
      {"measurement": "Mortality", "setting": "zebrafish embryos [4]; 27.8 µg/mL, n=30", "value": 0, "unit": "%"},
      {"measurement": "Phenotype: absence of blood flow (share of zebrafish)", "setting": "zebrafish embryos [4]; [5]", "value": 26.7, "unit": "%"},
      {"measurement": "Phenotype: pericardial oedema, venous sinus stasis (share of zebrafish)", "setting": "zebrafish embryos [4]; [5]", "value": 83.3, "unit": "%"},
      {"measurement": "Phenotype: slowed blood flow (share of zebrafish)", "setting": "zebrafish embryos [4]; [5]", "value": 56.7, "unit": "%"},
      {"measurement": "Mortality", "setting": "zebrafish embryos [4]; 83.3 µg/mL, n=30", "value": 0, "unit": "%"},
      {"measurement": "Phenotype (in words)", "setting": "zebrafish embryos [4]; 250 µg/mL, 4 µM astemizole, 48 h, n=30", "value": "no significant toxicity; also recorded: No abnormalities seen"},
      {"measurement": "Mortality", "setting": "zebrafish embryos [4]; 250 µg/mL, n=30", "value": 30, "unit": "%"},
      {"measurement": "Effect on the developmental toxicity of zebrafish hearts induced by astemizole (in words)", "setting": "zebrafish embryos [4]; 83.3 and 250 µg/ml, 4 µM astemizole, 48 h", "value": "ameliorating effect"},
      {"measurement": "Abnormalities or death in mice (in words)", "setting": "mice", "value": "no abnormalities or death"}
    ]}
  ]
}
